# Measurements reported in patent publication US11723894B2, “Combination product for the treatment of neurological and/or psychiatric disorders” (Consejo Superior de Investigaciones Cientificas (CSIC), priority 2017, dated 2023).
# How the values were obtained:
# [1] = tested on: microglial cells; experiment: LPS-induced nitrite production (Griess) in primary microglial cultures; type: cell-based, rat; conditions: microglia
# Experimental: (§1) Example 8: DMT, DET, DPT and 5-MeO-DMT administration in vitro prevents inflammation in rat primary glial cells. […] Rat primary glial cell cultures were prepared from the cerebral cortex of 3 day old rats which were dissected, dissociated, and incubated with 0.25% trypsin/EDTA at 37° C. for 1 h. After centrifugation, the pellet was washed three times with HBSS (Gibco) and the cells were plated in poly-D-lysine (20 μg/mL) pretreated flasks (75 cm2). After 7-10 days, the flasks were agitated in an orbital shaker for 4 h at 230 rpm at 37° C. and non-adherent microglial cells were isolated and plated. Then Dulbecco's Modified Eagle's Medium (DMEM) was added to the flasks, which were agitated in a horizontal shaker at 260 rpm at 37° C. After overnight agitation, the supernatant (oligodendrocytes and some remaining microglial cells) was removed, and astrocytes (adherent cells) were collected. The purity of the cultures was >95%, as determined by immunofluorescence analysis using an anti-glial fibrillary acidic protein (GFAP; clone G-A-5; Sigma-Aldrich) antibody to identify astrocytes, and an anti-Iba1 (Wako Catalog No. 019-19741) antibody to identify microglial cells. On attaining semiconfluence, cells were administered each of the test tryptamines at 1 μM or with the combination test tryptamine+Ritanserin (Rit at 1 μM) 2 h before exposure to lipopolysaccharide (LPS, 10 μg/mL; Sigma-Aldrich) and kept in the presence of each drug or drug combination for 24 h. In combination studies, Rit was added to medium 1h before administration of the corresponding tryptamine. Vehicle-treated cultures were used as a control. After the 24 h drug exposure period, cultures were tested to assess nitrite release. To quantify nitrite concentrations in culture medium, supernatants of glial cultures were collected and mixed with an equal volume of Griess reagent (Sigma-Aldrich). Samples were then incubated at room temperature for 15 min and absorbance was measured at 540 nm on a microplate reader. Results are expressed as the mean±SEM of six replications in three different experiments
# [2] = tested on: astrocytes; experiment: LPS-induced nitrite production (Griess) in primary astrocyte cultures; type: cell-based, rat
# Experimental: as §1
# [3] = tested on: dopaminergic neurons of the Substantia nigra pars compacta; experiment: 6-OHDA in vivo model of Parkinson's Disease (injection into Substantia nigra pars compacta); design: species or system C57BL/6 mice; conditions: 0.1 μg DMT co-injected with 5 μg 6-OHDA into SNpc, 3 weeks
# Experimental: Example 10: DMT administration prevents dopaminergic cell death in a in vivo model of Parkinson's disease. Adult male C57BL/6 mice (8-12 weeks old) were used in this study. Animals were properly anaesthetized and placed in a stereotaxic apparatus (Kopf Instruments, CA). 6-OHDA (5 μg in […] PBS) was injected into the right side of the Substantia nigra pars compacta (SNpc) (coordinates from Bregma: posterior −3.2 mm; lateral +2.0 mm; ventral: +4.7 mm, according to the atlas of Paxinos and Franklin, The Mouse Brain in Stereotaxic Coordinates. 4. San Diego: Academic Press; 2012). Control animals of the same age were injected with PBS. A third group received an injection with 6-OHDA (5 μg) combined with DMT (0.1 μg) in […] PBS. Mice were then housed individually to recover and sacrificed 3 weeks later. At this point animals were anaesthetized and perfused transcardially with a 4% paraformaldehyde solution. The brains were removed, postfixed in the same solution at 4° C. overnight, cryoprotected in 20% sucrose, frozen, and 30 μm coronal sections were obtained in a cryostat. Free-floating sections were processed for double fluorescent immunohistochemistry. […] Neuronal integrity and specifically dopaminergic cell death was assessed by counting the percentage of TH^+ cells in the SNpc following a stereological approach. […] Images were analyzed using computer-assisted image analysis software (Soft Imaging System Corporation, Lakewood, Colo.). Results were expressed as the percentage of dopaminergic cell loss in the SNpc.
# [4] = Rit 1 μM 1 h before tryptamine 1 μM, then LPS 10 μg/mL 24 h
# [5] = tryptamine 1 μM before LPS 10 μg/mL, 24 h, vs LPS alone
smiles,measurement,setting,value
"CN(C)CCc1c[nH]c2ccccc12 [DMT, N,N-dimethyltryptamine]",reduction of LPS-induced nitrite in the presence of Rit,[1]; [4],maintained
same,LPS-induced nitrite increases,[1]; [5],significantly reduced
same,reduction of LPS-induced nitrite in the presence of Rit,[2]; [4],maintained
same,LPS-induced nitrite increases,[2]; [5],significantly reduced
same,average percentage of dopaminergic cell loss in the SNpc,[3],10%
same,decrease in dopaminergic neurons and increase in activated astroglial and microglial cells (images),[3],virtually absent
